# Patent US20260193268A1, “TRICYCLIC PI3Ka INHIBITOR, PREPARATION METHOD THEREFOR, AND PHARMACEUTICAL USE THEREOF” (WIGEN BIOMEDICINE TECHNOLOGY (SHANGHAI) CO., LTD., priority 2022, published 2026)
# Read-outs that look alike come from different tables or passages of the source.
# Experiments:
# [1] = test system: HCC1954 cells (with PI3Kα H1047R mutation); assay: In vitro inhibition of HCC1954 cell proliferation (CellTiter-Lumi); format: cell-based; details: Homo sapiens, HCC1954, 144 h, read-out: Inhibitory activity against HCC1954 cells (IC50), class symbols
# Procedure: Assay for In Vitro Inhibition of HCC1954 Cell Proliferation by Compounds of the Present Disclosure
# The growth of the cells was evaluated, and the IC50 for the inhibition of cell growth by the compounds was calculated.
# [2] = test system: MCF-7 cells (with PI3Kα E545K mutation); assay: In vitro inhibition of MCF-7 cell proliferation (CellTiter-Lumi); format: cell-based; details: Homo sapiens, MCF7, 144 h, class symbols, read-out: Inhibitory activity against MCF-7 cells (IC50), class symbols
# Summary of the method: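 Growth IC50 derived from ATP luminescence (CellTiter-Lumi) after 144 h exposure of MCF-7 cells carrying PI3Kα E545K, plated 2000 cells/well and dosed with serial dilutions one day after seeding.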
# [3] = HCC1954 cells, 144 h, CellTiter-Lumi, class symbols
"IC50 [1, 3] [nM]",IC50 [2] [nM],SMILES,IC50 [1] [nM]
< 50,< 50,Cc1nc(-c2cn3c(n2)-c2cc(N4CCN(C5CN(c6ccc(NC(=O)C(C#N)=CC(C)(C)NC(=O)OC(C)(C)C)cc6)C5)CC4)ccc2OCC3)n(C(C)C)n1 [Compound 338],–
< 50,< 50,Cc1nc(-c2cn3c(n2)-c2cc(N4CCN(C5CN(c6ccc(NC(=O)C(C#N)=CC(C)(C)N(C)C7COC7)cc6)C5)CC4)ccc2OCC3)n(C(C)C)n1 [Compound 339],–
< 50,< 50,Cc1nc(-c2cn3c(n2)-c2cc(N4CCN(C5CN(c6ccc(NC(=O)C(C#N)=CC(C)(C)C)cc6)C5)CC4)ccc2OCC3)n(C(C)C)n1 [Compound 340],–
< 50,< 50,CC(C)(C=C(C#N)C(=O)Nc1ccc(N2CC(N3CCN(c4ccc5c(c4)-c4nc(N6C(=O)OC[C@H]6C(F)F)cn4CCO5)CC3)C2)cc1)OCOP(=O)(OCOC(=O)C(C)(C)C)OCOC(=O)C(C)(C)C [Compound 343],–
< 50,< 50,CC(C)(C=C(C#N)C(=O)Nc1ccc(N2CC(N3CCN(c4ccc5c(c4)-c4nc(N6C(=O)OC[C@H]6C(F)F)cn4CCO5)CC3)C2)c(F)c1)NC(=O)OC(C)(C)C [Compound 345],–
< 50,< 50,CNC(C)(C)C=C(C#N)C(=O)Nc1ccc(N2CC(N3CCN(c4ccc5c(c4)-c4nc(N6C(=O)OC[C@H]6C(F)F)cn4CCO5)CC3)C2)c(Cl)c1 [Compound 350],–
< 50,< 50,CN(C1COC1)C(C)(C)C=C(C#N)C(=O)Nc1ccc(N2CC(N3CCN(c4ccc5c(c4)-c4nc(N6C(=O)OC[C@H]6C(F)F)cn4CCO5)CC3)C2)c(Cl)c1 [Compound 352],–
< 50,< 50,CC(C)(C=C(C#N)C(=O)Nc1ccc(N2CC(N3CCN(c4ccc5c(c4)-c4nc(N6C(=O)OC[C@H]6C(F)F)cn4CCO5)CC3)C2)c(Cl)c1)NC1COC1 [Compound 353],–
< 50,< 50,CC(C)(C=C(C#N)C(=O)Nc1ccc(N2CC(N3CCN(c4ccc5c(c4)-c4nc(N6C(=O)OC[C@H]6C(F)F)cn4CCO5)CC3)C2)c(Cl)c1)N1CCC1 [Compound 354],–
< 50,< 50,CNC(C)(C)C=C(C#N)C(=O)Nc1ccc(N2CC(N3CCN(c4ccc5c(c4)-c4nc(N6C(=O)OC[C@H]6C(F)F)cn4CCO5)CC3)C2)cc1Cl [Compound 359],–
< 50,< 50,CC(C)(N)C=C(C#N)C(=O)Nc1ccc(N2CC(N3CCN(c4ccc5c(c4)-c4nc(N6C(=O)OC[C@H]6C(F)F)cn4CCO5)CC3)C2)cc1Cl [Compound 360],–
< 50,< 50,CC(C)(C=C(C#N)C(=O)Nc1ccc(N2CC(N3CCN(c4ccc5c(c4)-c4nc(N6C(=O)OC[C@H]6C(F)F)cn4CCO5)CC3)C2)cc1Cl)NC1COC1 [Compound 362],–
< 50,< 50,CC(C)(C=C(C#N)C(=O)Nc1ccc(N2CC(N3CCN(c4ccc5c(c4)-c4nc(N6C(=O)OC[C@H]6C(F)F)cn4CCO5)CC3)C2)cc1Cl)N1CCC1 [Compound 363],–
< 50,< 50,Cc1nc(-c2cn3c(n2)-c2cc(N4CCN(C5CN(c6ccc(NC(=O)C(C#N)=CC(C)(C)NC(=O)OC(C)(C)C)cc6F)C5)CC4)ccc2OCC3)n(C(C)C)n1 [Compound 374],–

# Continued, molecule first:
SMILES,"IC50 [1, 3] [nM]",IC50 [2] [nM],IC50 [1] [nM]
Cc1nc(-c2cn3c(n2)-c2cc(N4CCN(C5CN(c6ccc(NC(=O)C(C#N)=CC(C)(C)N)cc6)C5)CC4)ccc2OCC3)n(C(C)C)n1 [Compound 336],< 50,< 50,–
CNC(C)(C)C=C(C#N)C(=O)Nc1ccc(N2CC(N3CCN(c4ccc5c(c4)-c4nc(-c6nc(C)nn6C(C)C)cn4CCO5)CC3)C2)cc1 [Compound 337],< 50,< 50,–
CCOP(=O)(OCC)OCOC(C)(C)C=C(C#N)C(=O)Nc1ccc(N2CC(N3CCN(c4ccc5c(c4)-c4nc(N6C(=O)OC[C@H]6C(F)F)cn4CCO5)CC3)C2)cc1 [Compound 341],–,< 50,< 50
CCOP(=O)(OCC)OC(C)(C)C=C(C#N)C(=O)Nc1ccc(N2CC(N3CCN(c4ccc5c(c4)-c4nc(N6C(=O)OC[C@H]6C(F)F)cn4CCO5)CC3)C2)cc1 [Compound 342],–,< 50,< 50
CC(C)OC(=O)OCOP(=O)(OCOC(=O)OC(C)C)OCOC(C)(C)C=C(C#N)C(=O)Nc1ccc(N2CC(N3CCN(c4ccc5c(c4)-c4nc(N6C(=O)OC[C@H]6C(F)F)cn4CCO5)CC3)C2)cc1 [Compound 344],< 50,< 50,–
CC(=O)NC(C)(C)C=C(C#N)C(=O)Nc1ccc(N2CC(N3CCN(c4ccc5c(c4)-c4nc(N6C(=O)OC[C@H]6C(F)F)cn4CCO5)CC3)C2)c(F)c1 [Compound 347],< 50,< 50,–
CC(=O)NC(C)(C)C=C(C#N)C(=O)Nc1ccc(N2CC(N3CCN(c4ccc5c(c4)-c4nc(N6C(=O)OC[C@H]6C(F)F)cn4CCO5)CC3)C2)nc1 [Compound 348],< 50,< 50,–
CC(C)(N)C=C(C#N)C(=O)Nc1ccc(N2CC(N3CCN(c4ccc5c(c4)-c4nc(N6C(=O)OC[C@H]6C(F)F)cn4CCO5)CC3)C2)c(Cl)c1 [Compound 351],< 50,< 50,–
CC(C)(C)C=C(C#N)C(=O)Nc1ccc(N2CC(N3CCN(c4ccc5c(c4)-c4nc(N6C(=O)OC[C@H]6C(F)F)cn4CCO5)CC3)C2)c(Cl)c1 [Compound 355],< 50,< 50,–
CN(C)C/C=C/C(=O)Nc1ccc(N2CC(N3CCN(c4ccc5c(c4)-c4nc(N6C(=O)OC[C@H]6C(F)F)cn4CCO5)CC3)C2)c(Cl)c1 [Compound 356],< 50,< 50,–
CC(=O)NC(C)(C)C=C(C#N)C(=O)Nc1ccc(N2CC(N3CCN(c4ccc5c(c4)-c4nc(N6C(=O)OC[C@H]6C(F)F)cn4CCO5)CC3)C2)c(Cl)c1 [Compound 357],< 50,< 50,–
CC(C)(C=C(C#N)C(=O)Nc1ccc(N2CC(N3CCN(c4ccc5c(c4)-c4nc(N6C(=O)OC[C@H]6C(F)F)cn4CCO5)CC3)C2)cc1Cl)NC(=O)OC(C)(C)C [Compound 358],< 50,< 50,–
CN(C1COC1)C(C)(C)C=C(C#N)C(=O)Nc1ccc(N2CC(N3CCN(c4ccc5c(c4)-c4nc(N6C(=O)OC[C@H]6C(F)F)cn4CCO5)CC3)C2)cc1Cl [Compound 361],< 50,< 50,–
CC(C)(C)C=C(C#N)C(=O)Nc1ccc(N2CC(N3CCN(c4ccc5c(c4)-c4nc(N6C(=O)OC[C@H]6C(F)F)cn4CCO5)CC3)C2)cc1Cl [Compound 364],< 50,< 50,–
CN(C)C/C=C/C(=O)Nc1ccc(N2CC(N3CCN(c4ccc5c(c4)-c4nc(N6C(=O)OC[C@H]6C(F)F)cn4CCO5)CC3)C2)cc1Cl [Compound 365],< 50,< 50,–
CC(=O)NC(C)(C)C=C(C#N)C(=O)Nc1ccc(N2CC(N3CCN(c4ccc5c(c4)-c4nc(N6C(=O)OC[C@H]6C(F)F)cn4CCO5)CC3)C2)cc1Cl [Compound 366],< 50,< 50,–
Cc1nc(-c2cn3c(n2)-c2cc(N4CCN(C5CN(c6ccc(NC(=O)C(C#N)=CC(C)(C)C)cc6F)C5)CC4)ccc2OCC3)n(C(C)C)n1 [Compound 367],< 50,< 50,–
Cc1nc(-c2cn3c(n2)-c2cc(N4CCN(C5CN(c6ccc(NC(=O)C(C#N)=CC(C)(C)C)cn6)C5)CC4)ccc2OCC3)n(C(C)C)n1 [Compound 368],< 50,< 50,–
Cc1nc(-c2cn3c(n2)-c2cc(N4CCN(C5CN(c6ccc(NC(=O)C(C#N)=CC(C)(C)C)cc6Cl)C5)CC4)ccc2OCC3)n(C(C)C)n1 [Compound 369],< 50,< 50,–
Cc1nc(-c2cn3c(n2)-c2cc(N4CCN(C5CN(c6ccc(NC(=O)C(C#N)=CC(C)(C)C)c(Cl)c6)C5)CC4)ccc2OCC3)n(C(C)C)n1 [Compound 370],< 50,< 50,–
CC(C)n1ncnc1-c1cn2c(n1)-c1cc(N3CCN(C4CN(c5ccc(NC(=O)C(C#N)=CC(C)(C)C)cn5)C4)CC3)ccc1OCC2 [Compound 371],< 50,< 50,–
Cc1nc(-c2cn3c(n2)-c2cc(N4CCN(C5CN(c6ccc(NC(=O)C(C#N)=CC(C)(C)NC(=O)OC(C)(C)C)cn6)C5)CC4)ccc2OCC3)n(C(C)C)n1 [Compound 372],< 50,< 50,–
Cc1nc(-c2cn3c(n2)-c2cc(N4CCN(C5CN(c6ccc(NC(=O)C(C#N)=CC(C)(C)NC(=O)OC(C)(C)C)cc6Cl)C5)CC4)ccc2OCC3)n(C(C)C)n1 [Compound 373],< 50,< 50,–
CC(=O)NC(C)(C)C=C(C#N)C(=O)Nc1ccc(N2CC(N3CCN(c4ccc5c(c4)-c4nc(-c6nc(C)nn6C(C)C)cn4CCO5)CC3)C2)cc1 [Compound 375],< 50,< 50,–
C=CC(=O)Nc1ccc(N2CC(N3CCN(c4ccc5c(c4)-c4nc(-c6nc(C)nn6C(C)C)cn4CCO5)CC3)C2)c(F)c1 [Compound 376],< 50,< 50,–
C=CC(=O)Nc1ccc(N2CC(N3CCN(c4ccc5c(c4)-c4nc(-c6nc(C)nn6C(C)C)cn4CCO5)CC3)C2)cc1Cl [Compound 377],< 50,< 50,–
C=CC(=O)Nc1ccc(N2CC(N3CCN(c4ccc5c(c4)-c4nc(-c6nc(C)nn6C(C)C)cn4CCO5)CC3)C2)nc1 [Compound 379],< 50,< 50,–
CC(C)(C=C(C#N)C(=O)Nc1ccc(N2CC(N3CCN(c4ccc5c(c4)-c4nc(N6C(=O)OC[C@H]6C(F)F)cn4CCO5)CC3)C2)cc1)NC1(C)COC1 [Compound 380],< 50,< 50,–
CC(C)(C=C(C#N)C(=O)Nc1ccc(N2CC(N3CCN(c4ccc5c(c4)-c4nc(N6C(=O)OC[C@H]6C(F)F)cn4CCO5)CC3)C2)cc1)NCC1COC1 [Compound 381],< 50,< 50,–
